From patent US20140288074A1, “FUNGICIDAL PYRAZOLES” (E I DU PONT DE NEMOURS AND COMPANY, priority 2013, published 2014)
Marks after values point to notes of the source that are not given here.

Key:
Format in all cases: in vivo
Botrytis cinerea = assay: Test A: preventive spray on tomato seedlings, tomato Botrytis, visual disease rating; settings: for pest or weed control at 200 ppm / Test A rating (disease control): 200 ppm test suspension, Botrytis cinerea inoculated the day after spraying
Outline: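 Tomato seedlings were sprayed to run-off with test suspension, 200 ppm (≈800 g/ha) unless marked 40 ppm, in acetone/water with surfactant. They were inoculated with Botrytis cinerea spores next day, held 48 h saturated at 20 °C, then 3 days at 24 °C. Disease control was rated visually, 0–100 relative to controls, in triplicate.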

Alternaria solani = assay: Test B: preventive spray on tomato seedlings, tomato early blight, visual disease rating
Protocol: General protocol for preparing test suspensions for Tests A-G: the test compounds were first dissolved in acetone in an amount equal to 3% of the final volume and then suspended at the desired concentration (in ppm) in acetone and purified water (50/50 mix by volume) containing 250 ppm of the surfactant Trem® 014 (polyhydric alcohol esters). The resulting test suspensions were then used in Tests A-G. Each test was conducted in triplicate, and the results were averaged. Spraying a 200 ppm test suspension to the point of run-off on the test plants was the equivalent of a rate of 800 g/ha. Unless otherwise indicated, the rating values indicate a 200 ppm test suspension was used. (An asterisk “*” next to the rating value indicates a 40 ppm test suspension was used.) The test suspension was sprayed to the point of run-off on tomato seedlings. The following day the seedlings were inoculated with a spore suspension of Alternaria solani (the causal agent of tomato early blight) and incubated in a saturated atmosphere at 27° C. for 48 h, and then moved to a growth chamber at 20° C. for 5 days, after which time visual disease ratings were made. Results for Tests A-G are given in Table A. In the Table, a rating of 100 indicates 100% disease control and a rating of 0 indicates no disease control (relative to the controls). A hyphen (-) indicates no test results.

Septoria nodorum = assay: Test C: preventive spray on wheat seedlings, Septoria glume blotch, visual disease rating; settings: for pest or weed control at 200 ppm / Test C rating (disease control): 200 ppm test suspension, Septoria nodorum inoculated the day after spraying
Outline: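 Compounds suspended in acetone/water (50/50) with 250 ppm surfactant, sprayed to run-off at 200 ppm (40 ppm where marked); seedlings inoculated next day, held 48 h saturated at 24 °C, then 9 days at 20 °C. Visual rating 0–100% disease control versus controls, triplicate averaged.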

[1] = test system: Puccinia recondita f. sp. tritici; assay: Test F: preventive spray on wheat seedlings, wheat leaf rust, visual disease rating; settings: for pest or weed control at 200 ppm / Test F rating (disease control): 200 ppm test suspension, Puccinia recondita f. sp. tritici inoculated the day after spraying
Outline: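 Compounds in acetone/water (50/50) with 250 ppm Trem 014, sprayed to run-off on seedlings at 200 ppm (800 g/ha) or 40 ppm where marked. Inoculated next day, 24 h saturated atmosphere at 20° C then 6 days at 20° C; visual rating, 100 = full control vs controls, triplicate averaged.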

[2] = test system: Blumeria graminis f. sp. tritici; assay: Test G: preventive spray on wheat seedlings, wheat powdery mildew, visual disease rating;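 on all read-outs here: rated 8 days after spore dust inoculation at 20 °C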; settings: for pest or weed control at 200 ppm / Test G rating (disease control): 200 ppm test suspension, Blumeria graminis f. sp. tritici inoculated the day after spraying
Outline: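 Wheat seedlings sprayed to run-off with 200 ppm suspension (about 800 g/ha; asterisked values 40 ppm) in acetone/water with 250 ppm Trem 014. Inoculated next day with B. graminis spore dust and held at 20 °C for 8 days. Visual rating, 0–100 % disease control versus controls; triplicate, averaged.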

[3] = 200 ppm test suspension, Alternaria solani inoculated the day after spraying
[4] = Parastagonospora nodorum, 264 h

SMILES: Cc1nn(C)c(NCC(C)C)c1-c1ccc(Cl)cc1Cl [Compound 4, 4-(2,4-dichlorophenyl)-1,3-dimethyl-N-(2-methylpropyl)-1H-pyrazol-5-amine]
- pest or weed control at 200 ppm (Botrytis cinerea; 120 h): 99%
- Test B rating (disease control) (Alternaria solani; [3]): 94%
- pest or weed control at 200 ppm (Septoria nodorum; [4]): 0%
- pest or weed control at 200 ppm ([1]; 168 h): 0%
- pest or weed control at 200 ppm ([2]; 192 h): 93%

SMILES: Cc1nn(C)c(C(O)CC(C)C)c1-c1c(F)cccc1F (centres unmarked) [Compound 11]
- Test A rating (disease control) (Botrytis cinerea): 67%
- Test B rating (disease control) (Alternaria solani; [3]): 81%
- Test C rating (disease control) (Septoria nodorum): 0%
- Test F rating (disease control) [1]: 89%
- Test G rating (disease control) [2]: 99%

SMILES: CCC(C)C(O)c1c(-c2c(F)cccc2F)c(C)nn1C (centres unmarked) [Compound 15]
- Test A rating (disease control) (Botrytis cinerea): 67%
- Test B rating (disease control) (Alternaria solani; [3]): 99%
- Test C rating (disease control) (Septoria nodorum): 0%
- Test F rating (disease control) [1]: 74%
- Test G rating (disease control) [2]: 99%

SMILES: CCC(C)C(O)c1c(-c2ccc(F)cc2Cl)c(C)nn1C (stereo not drawn) [Compound 8, 4-(2-chloro-4-fluorophenyl)-1,3-dimethyl-α-(1-methylpropyl)-1H-pyrazole-5-methanol]
- pest or weed control at 200 ppm (Botrytis cinerea; 120 h): 95%
- Test B rating (disease control) (Alternaria solani; [3]): 99%
- pest or weed control at 200 ppm (Septoria nodorum; [4]): 0%
- pest or weed control at 200 ppm ([1]; 168 h): 100%
- pest or weed control at 200 ppm ([2]; 192 h): 99%

SMILES: CCCCC(CC)C(O)c1c(-c2c(F)cccc2F)c(C)nn1C (centres unmarked) [Compound 13]
- Test A rating (disease control) (Botrytis cinerea): 0%
- Test B rating (disease control) (Alternaria solani; [3]): 0%
- Test C rating (disease control) (Septoria nodorum): 0%
- Test F rating (disease control) [1]: 28%
- Test G rating (disease control) [2]: 96%

SMILES: CCCC(O)c1c(-c2c(F)cccc2Cl)c(C)nn1C (centres unmarked) [Compound 21]
- Test A rating (disease control) (Botrytis cinerea): 75%
- Test B rating (disease control) (Alternaria solani; [3]): 56%
- Test C rating (disease control) (Septoria nodorum): 0%
- Test F rating (disease control) [1]: 74%
- Test G rating (disease control) [2]: 99%

SMILES: CCCC(O)c1c(-c2c(F)cccc2F)c(C)nn1C (centres unmarked) [Compound 14]
- Test A rating (disease control) (Botrytis cinerea): 33%
- Test B rating (disease control) (Alternaria solani; [3]): 0%
- Test C rating (disease control) (Septoria nodorum): 0%
- Test F rating (disease control) [1]: 74%
- Test G rating (disease control) [2]: 99%

SMILES: Cc1nn(C)c(C(O)C(C)(C)CCC#N)c1-c1c(F)cccc1F (centres unmarked) [Compound 9]
- Test A rating (disease control) (Botrytis cinerea): 26%
- Test B rating (disease control) (Alternaria solani; [3]): 0%
- Test C rating (disease control) (Septoria nodorum): 0%
- Test F rating (disease control) [1]: 9%
- Test G rating (disease control) [2]: 53%

SMILES: Cc1nn(C)c(C(O)C(C)C)c1-c1ccc(F)cc1Cl (stereo not drawn) [Compound 2, 4-(2-chloro-4-fluorophenyl)-1,3-dimethyl-α-(1-methylethyl)-1H-pyrazole-5-methanol]
- pest or weed control at 200 ppm (Botrytis cinerea; 120 h): 100%
- Test B rating (disease control) (Alternaria solani; [3]): 0%
- pest or weed control at 200 ppm (Septoria nodorum; [4]): 0%
- pest or weed control at 200 ppm ([1]; 168 h): 99%
- pest or weed control at 200 ppm ([2]; 192 h): 97%

SMILES: CCCNc1c(-c2ccc(Cl)cc2Cl)c(C)nn1C [Compound 3]
- Test A rating (disease control) (Botrytis cinerea): 65%
- Test B rating (disease control) (Alternaria solani; [3]): 21%
- Test C rating (disease control) (Septoria nodorum): 0%
- Test F rating (disease control) [1]: 0%
- Test G rating (disease control) [2]: 0%

SMILES: CCC(C)C(O)c1c(-c2c(F)cccc2Cl)c(C)nn1C (stereo not drawn) [Compound 19, 4-(2-chloro-6-fluorophenyl)-1,3-dimethyl-α-(1-methylpropyl)-1H-pyrazole-5-methanol]
- pest or weed control at 40 ppm (Botrytis cinerea; 120 h, 40 ppm test suspension (asterisk), Botrytis cinerea): 77%
- Test B rating (disease control) (Alternaria solani; 40 ppm test suspension (asterisk), Alternaria solani): 0* %
- pest or weed control at 40 ppm (Septoria nodorum; Parastagonospora nodorum, 264 h, 40 ppm test suspension (asterisk), Septoria nodorum): 0%
- pest or weed control at 40 ppm ([1]; 168 h, 40 ppm test suspension (asterisk), Puccinia recondita f. sp. tritici, preventive): 19%
- pest or weed control at 40 ppm ([2]; 192 h, 40 ppm test suspension (asterisk), Blumeria graminis f. sp. tritici): 95%

SMILES: C=CCC(C)(C)C(O)c1c(-c2c(F)cccc2F)c(C)nn1C (centres unmarked) [Compound 12]
- Test A rating (disease control) (Botrytis cinerea): 0%
- Test B rating (disease control) (Alternaria solani; [3]): 32%
- Test C rating (disease control) (Septoria nodorum): 0%
- Test F rating (disease control) [1]: 41%
- Test G rating (disease control) [2]: 99%

SMILES: CCCCNc1c(-c2ccc(Cl)cc2Cl)c(C)nn1C [Compound 5, N-butyl-4-(2,4-dichlorophenyl)-1,3-dimethyl-1H-pyrazol-5-amine]
- pest or weed control at 200 ppm (Botrytis cinerea; 120 h): 98%
- Test B rating (disease control) (Alternaria solani; [3]): 0%
- pest or weed control at 200 ppm (Septoria nodorum; [4]): 0%
- pest or weed control at 200 ppm ([1]; 168 h): 27%
- pest or weed control at 200 ppm ([2]; 192 h): 58%

SMILES: Cc1nn(C)c(C(O)CC(C)C)c1-c1c(F)cccc1Cl (centres unmarked) [Compound 20]
- Test A rating (disease control) (Botrytis cinerea): 92%
- Test B rating (disease control) (Alternaria solani; [3]): 93%
- Test C rating (disease control) (Septoria nodorum): 0%
- Test F rating (disease control) [1]: 86%
- Test G rating (disease control) [2]: 99%

SMILES: Cc1nn(C)c(NC2CCCCC2)c1-c1ccc(F)cc1F [Compound 6, N-cyclohexyl-4-(2,4-difluorophenyl)-1,3-dimethyl-1H-pyrazol-5-amine]
- pest or weed control at 200 ppm (Botrytis cinerea; 120 h): 99%
- Test B rating (disease control) (Alternaria solani; [3]): 99%
- pest or weed control at 200 ppm (Septoria nodorum; [4]): 0%
- pest or weed control at 200 ppm ([1]; 168 h): 17%
- pest or weed control at 200 ppm ([2]; 192 h): 91%

SMILES: Cc1nn(C)c(C(O)C2=CCCCC2)c1-c1c(F)cccc1F (centres unmarked) [Compound 10]
- Test A rating (disease control) (Botrytis cinerea): 99%
- Test B rating (disease control) (Alternaria solani; [3]): 99%
- Test C rating (disease control) (Septoria nodorum): 0%
- Test F rating (disease control) [1]: 86%
- Test G rating (disease control) [2]: 85%
